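Grown in 96-well plates, cells were treated for 48 hours with each compound at five concentrations. Insufficient inhibition: endpoint recorded as highest concentration tested. TGI: concentration producing complete growth inhibition.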
Tests used:
Assay in all cases: DTP human tumour cell line panel, 48 h
TK-10 renal = test system: TK-10 renal
ACHN renal = test system: ACHN renal
SW-620 colon = test system: SW-620 colon
HCT-15 colon = test system: HCT-15 colon
HT29 colon = test system: HT29 colon
K-562 leukemia = test system: K-562 leukemia
A498 renal = test system: A498 renal
UACC-62 melanoma = test system: UACC-62 melanoma
BT-549 breast = test system: BT-549 breast
NCI-H23 lung = test system: NCI-H23 lung
MOLT-4 leukemia = test system: MOLT-4 leukemia
UO-31 renal = test system: UO-31 renal
CCRF-CEM leukemia = test system: CCRF-CEM leukemia
UACC-257 melanoma = test system: UACC-257 melanoma
LOX IMVI melanoma = test system: LOX IMVI melanoma
U251 CNS = test system: U251 CNS
HCT-116 colon = test system: HCT-116 colon
SNB-19 CNS = test system: SNB-19 CNS
MCF7 breast = test system: MCF7 breast
MDA-MB-435 = test system: MDA-MB-435
SF-268 CNS = test system: SF-268 CNS
KM12 colon = test system: KM12 colon
OVCAR-8 ovarian = test system: OVCAR-8 ovarian
SR leukemia = test system: SR leukemia
RXF 393 renal = test system: RXF 393 renal
SK-MEL-2 melanoma = test system: SK-MEL-2 melanoma
CAKI-1 renal = test system: CAKI-1 renal
SK-OV-3 ovarian = test system: SK-OV-3 ovarian
SNB-75 CNS = test system: SNB-75 CNS
HS 578T breast = test system: HS 578T breast
DU-145 prostate = test system: DU-145 prostate
SK-MEL-5 melanoma = test system: SK-MEL-5 melanoma
IGROV1 ovarian = test system: IGROV1 ovarian
HOP-92 NSCLC = test system: HOP-92 NSCLC
HL-60(TB) leukemia = test system: HL-60(TB) leukemia
OVCAR-5 ovarian = test system: OVCAR-5 ovarian
RPMI-8226 leukemia = test system: RPMI-8226 leukemia
MALME-3M melanoma = test system: MALME-3M melanoma
COLO 205 colon = test system: COLO 205 colon
M14 melanoma = test system: M14 melanoma
EKVX NSCLC = test system: EKVX NSCLC
A549 NSCLC = test system: A549 NSCLC
NCI-H460 lung = test system: NCI-H460 lung
SF-295 CNS = test system: SF-295 CNS
MDA-N = test system: MDA-N
786-0 renal = test system: 786-0 renal
SN12C renal = test system: SN12C renal
OVCAR-4 ovarian = test system: OVCAR-4 ovarian
OVCAR-3 ovarian = test system: OVCAR-3 ovarian
T-47D breast = test system: T-47D breast
NCI-H522 lung = test system: NCI-H522 lung
MDA-MB-231 breast = test system: MDA-MB-231 breast
NCI-H226 lung = test system: NCI-H226 lung
HOP-62 NSCLC = test system: HOP-62 NSCLC
SF-539 CNS = test system: SF-539 CNS
HCC-2998 colon = test system: HCC-2998 colon
SK-MEL-28 melanoma = test system: SK-MEL-28 melanoma
PC-3 prostate = test system: PC-3 prostate

Compound: C=C1C(=O)OC2/C=C(/CO)C3(O)CC(O)C(C)(CC(OC(=O)/C(C)=C/C)C12)O3 (stereo not given)
- TGI (TK-10 renal): 32.1 µM
- TGI (ACHN renal): 25 µM
- TGI (SW-620 colon): 22.3 µM
- TGI (HCT-15 colon): 31.6 µM
- TGI (HT29 colon): 25 µM
- TGI (K-562 leukemia): > 100 µM
- TGI (A498 renal): 50.2 µM
- TGI (UACC-62 melanoma): 21 µM
- TGI (BT-549 breast): 18.3 µM
- TGI (NCI-H23 lung): 42.9 µM
- TGI (MOLT-4 leukemia): 9.95 µM
- TGI (UO-31 renal): > 67.2 µM
- TGI (CCRF-CEM leukemia): > 24.6 µM
- TGI (UACC-257 melanoma): 39 µM
- TGI (LOX IMVI melanoma): 25.9 µM
- TGI (U251 CNS): 48.7 µM
- TGI (HCT-116 colon): > 44.7 µM
- TGI (SNB-19 CNS): > 100 µM
- TGI (MCF7 breast): 23.9 µM
- TGI (MDA-MB-435): > 57.1 µM
- TGI (SF-268 CNS): > 59.9 µM
- TGI (KM12 colon): 42 µM
- TGI (OVCAR-8 ovarian): 45.2 µM
- TGI (SR leukemia): > 26.1 µM
- TGI (RXF 393 renal): 12.6 µM
- TGI (SK-MEL-2 melanoma): > 66.1 µM
- TGI (CAKI-1 renal): 11.6 µM
- TGI (SK-OV-3 ovarian): > 61.7 µM
- TGI (SNB-75 CNS): > 100 µM
- TGI (HS 578T breast): > 100 µM
- TGI (DU-145 prostate): 41.4 µM
- TGI (SK-MEL-5 melanoma): 54.6 µM
- TGI (IGROV1 ovarian): 43.2 µM
- TGI (HOP-92 NSCLC): 30.6 µM
- TGI (HL-60(TB) leukemia): > 23 µM
- TGI (OVCAR-5 ovarian): 63.5 µM
- TGI (RPMI-8226 leukemia): 7.5 µM
- TGI (MALME-3M melanoma): 29.8 µM
- TGI (COLO 205 colon): 14.7 µM
- TGI (M14 melanoma): > 58.3 µM
- TGI (EKVX NSCLC): 48.5 µM
- TGI (A549 NSCLC): > 74.6 µM
- TGI (NCI-H460 lung): 48.9 µM
- TGI (SF-295 CNS): > 73 µM
- TGI (MDA-N): > 61 µM
- TGI (786-0 renal): 52.3 µM
- TGI (SN12C renal): 32.9 µM
- TGI (OVCAR-4 ovarian): > 62.9 µM
- TGI (OVCAR-3 ovarian): > 67.8 µM
- TGI (T-47D breast): 39.9 µM
- TGI (NCI-H522 lung): 7.32 µM
- TGI (MDA-MB-231 breast): 34.6 µM
- TGI (NCI-H226 lung): 51.5 µM
- TGI (HOP-62 NSCLC): > 100 µM
- TGI (SF-539 CNS): 61.4 µM
- TGI (HCC-2998 colon): 29 µM
- TGI (SK-MEL-28 melanoma): 49.5 µM
- TGI (PC-3 prostate): 83.9 µM

Compound: CC(C)c1ccc(/C=C2\N=C(c3ccc([N+](=O)[O-])cc3)OC2=O)cc1
- TGI (TK-10 renal): > 100 µM
- TGI (ACHN renal): > 100 µM
- TGI (SW-620 colon): > 100 µM
- TGI (HCT-15 colon): > 100 µM
- TGI (HT29 colon): > 100 µM
- TGI (K-562 leukemia): > 100 µM
- TGI (A498 renal): > 100 µM
- TGI (UACC-62 melanoma): > 100 µM
- TGI (BT-549 breast): > 100 µM
- TGI (NCI-H23 lung): > 100 µM
- TGI (MOLT-4 leukemia): > 100 µM
- TGI (CCRF-CEM leukemia): > 100 µM
- TGI (UACC-257 melanoma): > 100 µM
- TGI (LOX IMVI melanoma): > 100 µM
- TGI (U251 CNS): > 100 µM
- TGI (HCT-116 colon): > 100 µM
- TGI (SNB-19 CNS): > 100 µM
- TGI (MCF7 breast): > 100 µM
- TGI (MDA-MB-435): > 100 µM
- TGI (SF-268 CNS): > 100 µM
- TGI (KM12 colon): > 100 µM
- TGI (OVCAR-8 ovarian): > 100 µM
- TGI (SR leukemia): > 100 µM
- TGI (RXF 393 renal): > 100 µM
- TGI (SK-MEL-2 melanoma): > 100 µM
- TGI (CAKI-1 renal): > 100 µM
- TGI (SK-OV-3 ovarian): > 100 µM
- TGI (SNB-75 CNS): > 100 µM
- TGI (HS 578T breast): > 100 µM
- TGI (DU-145 prostate): > 100 µM
- TGI (SK-MEL-5 melanoma): > 100 µM
- TGI (IGROV1 ovarian): > 100 µM
- TGI (HOP-92 NSCLC): > 100 µM
- TGI (HL-60(TB) leukemia): > 100 µM
- TGI (OVCAR-5 ovarian): > 100 µM
- TGI (RPMI-8226 leukemia): > 100 µM
- TGI (MALME-3M melanoma): > 100 µM
- TGI (COLO 205 colon): > 100 µM
- TGI (M14 melanoma): > 100 µM
- TGI (EKVX NSCLC): > 100 µM
- TGI (A549 NSCLC): > 100 µM
- TGI (NCI-H460 lung): > 100 µM
- TGI (SF-295 CNS): > 100 µM
- TGI (MDA-N): > 100 µM
- TGI (786-0 renal): > 100 µM
- TGI (SN12C renal): > 100 µM
- TGI (OVCAR-4 ovarian): > 100 µM
- TGI (OVCAR-3 ovarian): > 100 µM
- TGI (T-47D breast): > 100 µM
- TGI (NCI-H522 lung): > 100 µM
- TGI (MDA-MB-231 breast): > 100 µM
- TGI (NCI-H226 lung): > 100 µM
- TGI (HOP-62 NSCLC): > 100 µM
- TGI (SF-539 CNS): > 100 µM
- TGI (HCC-2998 colon): > 100 µM
- TGI (SK-MEL-28 melanoma): > 100 µM
- TGI (PC-3 prostate): > 100 µM

From PubChem BioAssay (NCI)
